≈ marks a conversion by molar mass, not a printed value. Where two headings read alike, the source gives them in different places. Non-standard residues stand in square brackets, D forms with d. Residues, ends and D or L forms follow the SMILES beside them. *: point of attachment. Lys(Me) = CNCCCC[C@H](N)C(=O)O; Octanoyl = CCCCCCCC(=O)*
Legend:
E. coli 94474 = type: cell-based, Escherichia coli; settings: for MICUTBLP: UTBLP alone
Summary of the method: (§1)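 Checkerboard synergy assay: antibiotic and OMP combined at varying concentrations with 5 × 10^5 CFU/mL inoculum (final), 37 °C, 18 h; growth read as turbidity at 590 nm. FICI = sum of FICs (MIC in combination / MIC alone); ≤0.5 synergistic, 0.5–4 additive, >4 antagonistic.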

A. baumannii ATCC 17978 [1] = type: cell-based, Acinetobacter baumannii; settings: for MICUTBLP: UTBLP alone
Summary of the method: as §1

A. baumannii 92247 = type: cell-based, Acinetobacter baumannii; settings: for MICUTBLP: UTBLP alone
Summary of the method: as §1

A. baumannii AB027 [2] = type: cell-based, Acinetobacter baumannii; settings: for MICUTBLP: UTBLP alone
Summary of the method: as §1

A. baumannii ATCC 17978 [3] = type: cell-based, Acinetobacter baumannii; settings: ATCC 17978, 18 h
Summary of the method: (§2)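 Minimum inhibitory concentration came from a CLSI broth dilution assay: 18 h at 37 °C, inoculum 5 × 10^5 CFU/mL final.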

E. cloacae 118564 = type: cell-based, Enterobacter cloacae; settings: for MICUTBLP: UTBLP alone
Summary of the method: as §1

E. faecalis ATCC 29212 = type: cell-based, Enterococcus faecalis; settings: ATCC 29212, 18 h
Summary of the method: as §2

E. faecium ATCC 27270 = type: cell-based, Enterococcus faecium; settings: ATCC 27270, 18 h
Summary of the method: as §2

A. baumannii AB92247 = experiment: microbe, parasite or virus in culture; type: cell-based, Acinetobacter baumannii; settings: AB92247, 18 h
Summary of the method: as §2

A. baumannii AB027 [4] = experiment: microbe, parasite or virus in culture; type: cell-based, Acinetobacter baumannii; settings: AB027, 18 h
Summary of the method: as §2

K. pneumoniae 113250 = type: cell-based, Klebsiella pneumoniae; settings: for MICUTBLP: UTBLP alone
Summary of the method: as §1

P. aeruginosa PAO1 = type: cell-based, Pseudomonas aeruginosa; settings: for MICUTBLP: UTBLP alone
Summary of the method: as §1

[5] = tested on: P. aeruginosa PA262-101856; type: cell-based, Pseudomonas aeruginosa; settings: for MICUTBLP: UTBLP alone
Summary of the method: as §1

[6] = tested on: P. aeruginosa PA259-96196; type: cell-based, Pseudomonas aeruginosa; settings: for MICUTBLP: UTBLP alone
Summary of the method: as §1

S. aureus ATCC 29213 = type: cell-based, Staphylococcus aureus
Summary of the method: as §1

MRSA ATCC 33592 = type: cell-based, Staphylococcus aureus
Summary of the method: as §1

[7] = UTBLP in combination with novobiocin
[8] = UTBLP in combination with rifampicin
[9] = novobiocin in combination with the UTBLP
[10] = rifampicin in combination with the UTBLP
[11] = UTBLP in combination with chloramphenicol
[12] = UTBLP in combination with niclosamide
[13] = chloramphenicol in combination with the UTBLP
[14] = niclosamide in combination with the UTBLP
[15] = UTBLP alone, plate with chloramphenicol

With `CCCCCCCC(=O)NCCCC[C@H](NC(=O)CCCCCCC)C(=O)N[C@@H](CCCCNC)C(=O)N[C@@H](CCCCNC)C(=O)N[C@@H](CCCCNC)C(=O)N[C@@H](CCCCNC)C(N)=O` [UTBLP 6] (Octanoyl-K(Octanoyl)[Lys(Me)][Lys(Me)][Lys(Me)][Lys(Me)]-NH2) the Interpretation (E. coli 94474; UTBLP + novobiocin) was “Synergy (FICI ≤ 0.5 is synergistic)”, the Interpretation (E. coli 94474; UTBLP + rifampicin) was “Synergy (FICI ≤ 0.5 is synergistic)” and the MICUTBLP (E. coli 94474; plate with novobiocin) was over 128 µg/mL. For the same compound, the MICUTBLP (E. coli 94474; plate with rifampicin) was over 128 µg/mL, the “MICUTBLP [MICcombo]” value (E. coli 94474; [7]) was 16 µg/mL and the “MICUTBLP [MICcombo]” value (E. coli 94474; [8]) was 16 µg/mL. For the same compound, the “MICantibiotic [MICcombo]” value (E. coli 94474; [9]) was 1 µg/mL, the “MICantibiotic [MICcombo]” value (E. coli 94474; [10]) was 0.125 µg/mL and the Interpretation (A. baumannii ATCC 17978 [1]; UTBLP + chloramphenicol) was “Additive (0.5 < x ≤ 4 is additive)”. For the same compound, the Interpretation (A. baumannii ATCC 17978 [1]; UTBLP + niclosamide) was “Synergy (FICI ≤ 0.5 is synergistic)”, the Interpretation (A. baumannii ATCC 17978 [1]; UTBLP + novobiocin) was “Synergy (FICI ≤ 0.5 is synergistic)” and the Interpretation (A. baumannii ATCC 17978 [1]; UTBLP + rifampicin) was “Synergy (FICI ≤ 0.5 is synergistic)”. The MICUTBLP (A. baumannii ATCC 17978 [1]; plate with chloramphenicol) was 64 µg/mL, the MICUTBLP (A. baumannii ATCC 17978 [1]; plate with niclosamide) was 64 µg/mL and the MICUTBLP (A. baumannii ATCC 17978 [1]; plate with novobiocin) was 64 µg/mL. For the same compound, the MICUTBLP (A. baumannii ATCC 17978 [1]; plate with rifampicin) was 64 µg/mL, the “MICUTBLP [MICcombo]” value (A. baumannii ATCC 17978 [1]; [11]) was 8 µg/mL and the “MICUTBLP [MICcombo]” value (A. baumannii ATCC 17978 [1]; [12]) was 1 µg/mL. For the same compound, the “MICUTBLP [MICcombo]” value (A. baumannii ATCC 17978 [1]; [7]) was 4 µg/mL, the “MICUTBLP [MICcombo]” value (A. baumannii ATCC 17978 [1]; [8]) was 2 µg/mL and the “MICantibiotic [MICcombo]” value (A. baumannii ATCC 17978 [1]; [13]) was 32 µg/mL. The “MICantibiotic [MICcombo]” value (A. baumannii ATCC 17978 [1]; [14]) was 4 µg/mL, the “MICantibiotic [MICcombo]” value (A. baumannii ATCC 17978 [1]; [9]) was 0.25 µg/mL and the “MICantibiotic [MICcombo]” value (A. baumannii ATCC 17978 [1]; [10]) was 0.031 µg/mL. For the same compound, the Interpretation (A. baumannii 92247; UTBLP + novobiocin) was “Synergy (FICI ≤ 0.5 is synergistic)”, the Interpretation (A. baumannii 92247; UTBLP + rifampicin) was “Synergy (FICI ≤ 0.5 is synergistic)” and the MICUTBLP (A. baumannii 92247; plate with novobiocin) was 32 µg/mL. The MICUTBLP (A. baumannii 92247; plate with rifampicin) was 32 µg/mL, the “MICUTBLP [MICcombo]” value (A. baumannii 92247; [7]) was 1 µg/mL and the “MICUTBLP [MICcombo]” value (A. baumannii 92247; [8]) was 0.5 µg/mL. For the same compound, the “MICantibiotic [MICcombo]” value (A. baumannii 92247; [9]) was 0.125 µg/mL, the “MICantibiotic [MICcombo]” value (A. baumannii 92247; [10]) was 0.063 µg/mL and the Interpretation (A. baumannii AB027 [2]; UTBLP + novobiocin) was “Synergy (FICI ≤ 0.5 is synergistic)”. The Interpretation (A. baumannii AB027 [2]; UTBLP + rifampicin) was “Synergy (FICI ≤ 0.5 is synergistic)”, the MICUTBLP (A. baumannii AB027 [2]; plate with novobiocin) was over 128 µg/mL and the MICUTBLP (A. baumannii AB027 [2]; plate with rifampicin) was over 128 µg/mL. For the same compound, the “MICUTBLP [MICcombo]” value (A. baumannii AB027 [2]; [7]) was 16 µg/mL, the “MICUTBLP [MICcombo]” value (A. baumannii AB027 [2]; [8]) was 16 µg/mL and the “MICantibiotic [MICcombo]” value (A. baumannii AB027 [2]; [9]) was 0.031 µg/mL. The “MICantibiotic [MICcombo]” value (A. baumannii AB027 [2]; [10]) was 0.002 µg/mL, the MIC (A. baumannii ATCC 17978 [3]) was 64 µg/mL (≈ 66.2 µM) and the Interpretation (E. cloacae 118564; UTBLP + novobiocin) was “Synergy (FICI ≤ 0.5 is synergistic)”. For the same compound, the Interpretation (E. cloacae 118564; UTBLP + rifampicin) was “Synergy (FICI ≤ 0.5 is synergistic)”, the MICUTBLP (E. cloacae 118564; plate with novobiocin) was over 128 µg/mL and the MICUTBLP (E. cloacae 118564; plate with rifampicin) was over 128 µg/mL. For the same compound, the “MICUTBLP [MICcombo]” value (E. cloacae 118564; [7]) was 16 µg/mL, the “MICUTBLP [MICcombo]” value (E. cloacae 118564; [8]) was 16 µg/mL and the “MICantibiotic [MICcombo]” value (E. cloacae 118564; [9]) was 1 µg/mL. For the same compound, the “MICantibiotic [MICcombo]” value (E. cloacae 118564; [10]) was 0.5 µg/mL, the MIC (E. faecalis ATCC 29212) was 32 µg/mL (≈ 33.1 µM) and the MIC (E. faecium ATCC 27270) was 64 µg/mL (≈ 66.2 µM). For the same compound, the MIC (A. baumannii AB92247) was 32 µg/mL (≈ 33.1 µM), the MIC (A. baumannii AB027 [4]) was over 128 µg/mL and the Interpretation (K. pneumoniae 113250; UTBLP + novobiocin) was “Synergy (FICI ≤ 0.5 is synergistic)”. The Interpretation (K. pneumoniae 113250; UTBLP + rifampicin) was “Synergy (FICI ≤ 0.5 is synergistic)”, the MICUTBLP (K. pneumoniae 113250; plate with novobiocin) was over 128 µg/mL and the MICUTBLP (K. pneumoniae 113250; plate with rifampicin) was over 128 µg/mL. For the same compound, the “MICUTBLP [MICcombo]” value (K. pneumoniae 113250; [7]) was 16 µg/mL, the “MICUTBLP [MICcombo]” value (K. pneumoniae 113250; [8]) was 16 µg/mL and the “MICantibiotic [MICcombo]” value (K. pneumoniae 113250; [9]) was 2 µg/mL. For the same compound, the “MICantibiotic [MICcombo]” value (K. pneumoniae 113250; [10]) was 1 µg/mL, the Interpretation (P. aeruginosa PAO1; UTBLP + chloramphenicol) was “Synergy (FICI ≤ 0.5 is synergistic)” and the Interpretation (P. aeruginosa PAO1; UTBLP + niclosamide) was “Synergy (FICI ≤ 0.5 is synergistic)”. The Interpretation (P. aeruginosa PAO1; UTBLP + novobiocin) was “Synergy (FICI ≤ 0.5 is synergistic)”, the Interpretation (P. aeruginosa PAO1; UTBLP + rifampicin) was “Synergy (FICI ≤ 0.5 is synergistic)” and the MICUTBLP (P. aeruginosa PAO1; plate with chloramphenicol) was over 128 µg/mL. For the same compound, the MICUTBLP (P. aeruginosa PAO1; plate with niclosamide) was over 128 µg/mL, the MICUTBLP (P. aeruginosa PAO1; plate with novobiocin) was over 128 µg/mL and the MICUTBLP (P. aeruginosa PAO1; plate with rifampicin) was over 128 µg/mL. For the same compound, the “MICUTBLP [MICcombo]” value (P. aeruginosa PAO1; [11]) was 16 µg/mL, the “MICUTBLP [MICcombo]” value (P. aeruginosa PAO1; [12]) was 16 µg/mL and the “MICUTBLP [MICcombo]” value (P. aeruginosa PAO1; [7]) was 16 µg/mL. For the same compound, the “MICUTBLP [MICcombo]” value (P. aeruginosa PAO1; [8]) was 16 µg/mL, the “MICantibiotic [MICcombo]” value (P. aeruginosa PAO1; [13]) was 2 µg/mL and the “MICantibiotic [MICcombo]” value (P. aeruginosa PAO1; [14]) was 2 µg/mL. For the same compound, the “MICantibiotic [MICcombo]” value (P. aeruginosa PAO1; [9]) was 32 µg/mL, the “MICantibiotic [MICcombo]” value (P. aeruginosa PAO1; [10]) was 1 µg/mL and the Interpretation ([5]; UTBLP + novobiocin) was “Synergy (FICI ≤ 0.5 is synergistic)”. The Interpretation ([5]; UTBLP + rifampicin) was “Additive (0.5 < x ≤ 4 is additive)”, the MICUTBLP ([5]; plate with novobiocin) was over 128 µg/mL and the MICUTBLP ([5]; plate with rifampicin) was over 128 µg/mL. The “MICUTBLP [MICcombo]” value [5, 7] was 16 µg/mL, the “MICUTBLP [MICcombo]” value [5, 8] was 16 µg/mL and the “MICantibiotic [MICcombo]” value [5, 9] was 128 µg/mL. The “MICantibiotic [MICcombo]” value [5, 10] was 256 µg/mL, the Interpretation ([6]; UTBLP + novobiocin) was “Synergy (FICI ≤ 0.5 is synergistic)” and the Interpretation ([6]; UTBLP + rifampicin) was “Synergy (FICI ≤ 0.5 is synergistic)”. For the same compound, the MICUTBLP ([6]; plate with novobiocin) was over 128 µg/mL, the MICUTBLP ([6]; plate with rifampicin) was over 128 µg/mL and the “MICUTBLP [MICcombo]” value [6, 7] was 16 µg/mL. The “MICUTBLP [MICcombo]” value [6, 8] was 16 µg/mL, the “MICantibiotic [MICcombo]” value [6, 9] was 128 µg/mL and the “MICantibiotic [MICcombo]” value [6, 10] was 2 µg/mL. The MICUTBLP (S. aureus ATCC 29213; [15]) was 128 µg/mL, the “MICUTBLP [MICcombo]” value (S. aureus ATCC 29213; [11]) was 16 µg/mL and the “MICchloramphenicol [MICcombo]” value (S. aureus ATCC 29213; [13]) was 4 µg/mL. The Interpretation (MRSA ATCC 33592; UTBLP + chloramphenicol) was “Additive (0.5 < x ≤ 4 is additive)”, the MICUTBLP (MRSA ATCC 33592; [15]) was over 128 µg/mL and the “MICUTBLP [MICcombo]” value (MRSA ATCC 33592; [11]) was 0.25 µg/mL. For the same compound, the “MICchloramphenicol [MICcombo]” value (MRSA ATCC 33592; [13]) was 64 µg/mL.

Source: article PMC8963254, “Effects of Lysine N-ζ-Methylation in Ultrashort Tetrabasic Lipopeptides (UTBLPs) on the Potentiation of Rifampicin, Novobiocin, and Niclosamide in Gram-Negative Bacteria” (Antibiotics, 2022)
